Values of other authors in patent US20160120180A1, “COMPOSITIONS AND METHODS FOR CONTROLLING REPLANT DISEASES OF PERENNIAL CROPS” (Adjuvants Unlimited LLC, priority 2014, published 2016).

What was measured:
Meloidogyne incognita [1] = settings: in vitro
nematodes = settings: soil-applied treatment on bermudagrass
Meloidogyne incognita [2] = settings: sprayed on plant foliage as a dilute emulsion
test plants = settings: emulsion applied to soil at 2 and 4 grams of fatty acid per square foot

## C=CCCCCCCCCC(=O)O [undecylenic acid]
Meloidogyne incognita [1]
  Effect on isolated egg masses: destroyed isolated egg masses
nematodes
  Nematode number: reduction in nematode number
Meloidogyne incognita [2]
  Systemic effects on nematodes: no systemic effects
Test plants
  Effect on test plants (phytotoxicity): the test plants died
